For the data set, the system named is rodent carcinogenicity bioassays, tumor incidence. As to the kind of experiment: CCRIS carcinogenicity studies. Conditions: Route: ORAL, Dose: 0, Dose: 0. The method in brief:
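Archive of carcinogenicity, mutagenicity, tumor promotion and tumor inhibition results drawn from journals, NCI reports and other sources, expert-reviewed; covers 1985-2011 and is no longer updated.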

Data on three compounds can be found in PubChem BioAssay AID1259411 (Chemical Carcinogenesis Research Information System (CCRIS), 2018).

Activity calls are given as the source filed them. How the calls were made is not given here.

In the case of `CNC(=O)ON=C(SC)C(=O)N(C)C`, the carcinogen call (Species: MOUSE, Strain/Sex: CD-1/FEMALE, 25, 50, 75 PPM IN DIET FOR 2 YR (STUDY DURATION: 2 YR), 25, 50, 75 PPM IN DIET FOR 2 YR (STUDY DURATION: 2 YR)) was “inactive; negative”; the carcinogen call (Species: MOUSE, Strain/Sex: CD-1/MALE, 25, 50, 75 PPM IN DIET FOR 2 YR (STUDY DURATION: 2 YR), 25, 50, 75 PPM IN DIET FOR 2 YR (STUDY DURATION: 2 YR)) was “inactive; negative”; the carcinogen call (Species: RAT, Strain/Sex: CRL:CD/FEMALE, 50, 100, 150 PPM IN DIET FOR 2 YR (STUDY DURATION: 2 YR), 50, 100, 150 PPM IN DIET FOR 2 YR (STUDY DURATION: 2 YR)) is “inactive; negative”; the carcinogen call (Species: RAT, Strain/Sex: CRL:CD/MALE, 50, 100, 150 PPM IN DIET FOR 2 YR (STUDY DURATION: 2 YR), 50, 100, 150 PPM IN DIET FOR 2 YR (STUDY DURATION: 2 YR)) was “inactive; negative”.

Consider `O=C(O)C(Cl)Cl`, for which the carcinogen call by setting is: (Species: MOUSE, Strain/Sex: B6C3F1/FEMALE, 2, 6.67, 20 MMOL/L IN DRINKING WATER FOR 360 D (STUDY DURATION: 360 D), 2, 6.67, 20 MMOL/L IN DRINKING WATER FOR 360 D (STUDY DURATION: 360 D), Tumor Site: Type of Lesion: LIVER: ADENOMA) “active; positive”; (Species: MOUSE, Strain/Sex: B6C3F1/FEMALE, 2, 6.67, 20 MMOL/L IN DRINKING WATER FOR 576 D (STUDY DURATION: 576 D), 2, 6.67, 20 MMOL/L IN DRINKING WATER FOR 576 D (STUDY DURATION: 576 D), Tumor Site: Type of Lesion: LIVER: ADENOMA, CARCINOMA) “active; positive”; (Species: MOUSE, Strain/Sex: B6C3F1/FEMALE, 2 G/L (TOTAL DOSE) IN DRINKING WATER FOR 52 WK (STUDY DURATION: 52 WK)) “inactive; negative”; (Species: MOUSE, Strain/Sex: B6C3F1/FEMALE, 20 MMOL/L IN DRINKING WATER FOR 24 D FOLLOWED BY 48 D WITHOUT EXPOSURE THIS 72-DAY CYCLE REPEATED FOR THE DURATION OF) “inactive; negative”; (Species: MOUSE, Strain/Sex: B6C3F1/MALE, 0.5, 1.0, 2, 3.5 G/L IN DRINKING WATER FOR 26 WK (STUDY DURATION: 26 WK), 0.5, 1.0, 2, 3.5 G/L IN DRINKING WATER FOR 26 WK (STUDY DURATION: 26 WK)) “inactive; negative”; (Species: MOUSE, Strain/Sex: B6C3F1/MALE, 0.5, 1.0, 2, 3.5 G/L IN DRINKING WATER FOR 52 WK (STUDY DURATION: 52 WK), 0.5, 1.0, 2, 3.5 G/L IN DRINKING WATER FOR 52 WK (STUDY DURATION: 52 WK), Tumor Site: Type of Lesion: LIVER: HEPATOCELLULAR ADENOMA OR CARCINOMA) “active; positive”. The carcinogen call is, setting by setting: (Species: MOUSE, Strain/Sex: B6C3F1/MALE, 0.5, 1.0, 2, 3.5 G/L IN DRINKING WATER FOR 78 WK (STUDY DURATION: 78 WK), 0.5, 1.0, 2, 3.5 G/L IN DRINKING WATER FOR 78 WK (STUDY DURATION: 78 WK), Tumor Site: Type of Lesion: LIVER: HEPATOCELLULAR ADENOMA OR CARCINOMA) “active; positive”; (Species: MOUSE, Strain/Sex: B6C3F1/MALE, 0.5, 1.0, 2, 3.5 G/L IN DRINKING WATER FOR 100 WK (STUDY DURATION: 100 WK), 0.5, 1.0, 2, 3.5 G/L IN DRINKING WATER FOR 100 WK (STUDY DURATION: 100 WK), Tumor Site: Type of Lesion: LIVER: HEPATOCELLULAR ADENOMA OR CARCINOMA) “active; positive”; (Species: MOUSE, Strain/Sex: B6C3F1/MALE, 0.5 G/L DISTILLED DRINKING WATER FOR STUDY DURATION (93 MG/KG/D) (STUDY DURATION: 104 WK), Tumor Site: Type of Lesion: LIVER: HEPATOCELLULAR CARCINOMA, HEPATOCELLULAR ADENOMA) “active; positive”; (Species: MOUSE, Strain/Sex: B6C3F1/MALE, 1, 2 G/L IN DRINKING WATER FOR 52 WK (STUDY DURATION: 52 WK), 1, 2 G/L IN DRINKING WATER FOR 52 WK (STUDY DURATION: 52 WK), Tumor Site: Type of Lesion: LIVER: ADENOMA OR HEPATOCELLULAR CARCINOMA) “active; positive”; (Species: MOUSE, Strain/Sex: B6C3F1/MALE, 1 G, 2 G/L (TOTAL DOSE) IN DRINKING WATER FOR 52 WK (STUDY DURATION: 52 WK), 1 G, 2 G/L (TOTAL DOSE) IN DRINKING WATER FOR 52 WK (STUDY DURATION: 52 WK), Tumor Site: Type of Lesion: LIVER: HEPATOCELLULAR CARCINOMA, ADENOMA, HYPERPLASTIC NODULES) “active; positive”; (Species: MOUSE, Strain/Sex: B6C3F1/MALE, 2 G/L (TOTAL DOSE) IN DRINKING WATER FOR 37 WK (STUDY DURATION: 52 WK), Tumor Site: Type of Lesion: LIVER: ADENOMA, HYPERPLASTIC NODULES) “active; positive”. For the same compound, the carcinogen call was “active; positive” (Species: MOUSE, Strain/Sex: B6C3F1/MALE, 5 G/L (0; 39 MILLIMOLAR) IN DRINKING WATER FOR 61 WK (STUDY DURATION: 61 WK), 5 G/L (0; 39 MILLIMOLAR) IN DRINKING WATER FOR 61 WK (STUDY DURATION: 61 WK), Tumor Site: Type of Lesion: LIVER: CARCINOMA); “active; positive” (Species: RAT, Strain/Sex: F344/MALE, 0.05, 0.5 G/L IN DRINKING WATER FOR 100 WK (STUDY DURATION: 100 WK), 0.05, 0.5 G/L IN DRINKING WATER FOR 100 WK (STUDY DURATION: 100 WK), Tumor Site: Type of Lesion: LIVER: HEPATOCELLULAR ADENOMA OR CARCINOMA); “active; positive” (Species: RAT, Strain/Sex: F344/MALE, 2.5 G/L IN DRINKING WATER DOSE LOWERED TO 1 G/L AFTER 18 WK (STUDY DURATION: 103 WK), Tumor Site: Type of Lesion: LIVER: HEPATOCELLULAR ADENOMA OR CARCINOMA).

Consider `CC(=O)C(N=Nc1ccc(-c2ccc(N=NC(C(C)=O)C(=O)Nc3ccccc3)c(Cl)c2)cc1Cl)C(=O)Nc1ccccc1` (stereo not drawn), for which the carcinogen call (Species: MOUSE, Strain/Sex: B6C3F1/FEMALE, 2.5, 5% OF DIET, 2.5, 5% OF DIET) was “inactive; negative”; the carcinogen call (Species: MOUSE, Strain/Sex: B6C3F1/MALE, 2.5, 5% OF DIET, 2.5, 5% OF DIET) is “inactive; negative”; the carcinogen call (Species: RAT, Strain/Sex: F344/FEMALE, 2.5, 5% OF DIET, 2.5, 5% OF DIET) was “inactive; negative”; the carcinogen call (Species: RAT, Strain/Sex: F344/MALE, 2.5, 5% OF DIET, 2.5, 5% OF DIET) is “inactive; negative”.
